“Also recorded” adds a separate entry of the source.

The target in data set [1] is T1, PRMT1 (Homo sapiens, UniProt Q99873).
T1 construct: human PRMT1 protein (amino acid residue 11–353); His6; made in house
The experiment in a line: MALDI-MS methylation states of R4 peptide by PRMT1-WT. The conditions noted are these: 0.5 μM vs 1 μM PRMT1, 10 μM R4, 50 μM SAM, 30 min. The class given is biochemical. An excerpt: (§1) It is known that PRMT1 can mono- and di-methylate an arginine residue on a protein or peptide substrate sequence, which results in monomethylarginine and asymmetric dimethylarginines product states. We attempted to examine whether oligomerization promotes PRMT1 ability to generate multiple methylation states in substrates. We used a synthetic peptide with four possible arginine methylation sites for PRMT1: the R4 peptide (Ac-[…]). R4 peptide, SAM, and different concentrations of PRMT1 were mixed in an aqueous buffer to allow methylation to occur, and then the mixture was subjected to MALDI-MS analysis. […] Our rationale is that, even though PRMT1-E153Q is catalytically dead, it can still interact with PRMT1-WT, resulting in hybrid higher oligomers. Therefore, presenting varying amounts of PRMT1-E153Q to a fixed concentration of PRMT1-WT would be another ideal way to test how oligomerization impacts on PRMT1 activity. […] Next, the concentration of PRMT1-WT was kept constant at 0.5 μM, but the concentration of PRMT1-E153Q was changed (Fig. 4). […] We further tested the methylation of the H4 peptide by 0.1 μM PRMT1-WT with the presence of PRMT1-E153Q.
Figure 3 Determine the methylation state of R4 peptide by PRMT1 high-order oligomers. The reaction consisted of 0 μM (A), 0.5 μM (B), 1 μM (C) of PRMT1, 10 μM R4 peptide, and 50 μM SAM for 30 min at room temperature. […]

Data set [2] concerns PRMT1-WT / PRMT1-E153Q oligomers. The experiment in a line: MALDI-MS methylation states of R4 peptide by PRMT1-WT with added PRMT1-E153Q. The class given is biochemical, human. The following applies: 0.5 μM PRMT1-WT, 0-2 μM PRMT1-E153Q.
Description: as §1
Figure 4 Determine the methylation state of R4 peptide by PRMT1 and PRMT1-E153Q oligomers formation. PRMT1 and PRMT1-E153Q was incubated on ice for 20 min before the addition of 10 μM R4 and 50 μM of SAM. […]

The target of data set [3] is T2, PRMT1-WT (Homo sapiens, UniProt Q99873).
T2 construct: His-MBP (N, cleaved yes); made in house; host or cells: Escherichia coli BL21 (DE3) RIPL
Nature of the data set: Radiometric P81 filter-binding assay, PRMT1-WT concentration dependence. The conditions noted are these: 50 μM peptide, 2 μM [3H]-SAM and 48 μM SAM, 30 min, room temperature, pH 8.0. The class given is biochemical.
Description: We used the phosphocellulose P81 filter paper–binding assay to measure the catalytic activity of PRMT1 at different concentrations on individual peptides. Each reaction mixture was composed of PRMT1-WT at varied concentrations, at fixed concentrations of SAM and peptide. The reaction mixture was quenched with isopropanol, transferred to the P81 filter paper, and washed with sodium bicarbonate buffer (pH 9). […] The measured count-per-minute (CPM) values correlated directly with the amounts of methylated peptide products. In a typical enzymatic catalysis, the product should be formed linearly as a function of enzyme concentration.
Various concentrations of PRMT1-WT were incubated with radioactive 2 μM [3H]-SAM and 48 μM SAM and 50 μM of indicated peptides for 30 min. The reaction was quenched with 100% isopropanol.
The reaction buffer consisted of 50 mM Hepes pH 8.0, 10 mM NaCl, 0.5 mM EDTA, and 0.5 mM DTT. The reaction was incubated at room temperature for 30 min after being initiated with ^3H-SAM SAM. An equal amount of 100% isopropanol to the total reaction volume was used to quench the reaction. The reaction liquid was transferred onto the phosphocellulose P81 filter paper (1.1 cm × 2 cm, Protein Chemistry & Metabolism Unit at St Vincent's Institute of Medical Research). The P81 filter papers containing the samples were left at room temperature for 30 min to airdry. […]

The target in data set [4] is T1, PRMT1. Nature of the data set: Dynamic light scattering of PRMT1 oligomers. It counts as physicochemical. The conditions noted are these: no denaturant, 50 mM Hepes pH 8, 10 mM NaCl, 0.5 mM EDTA, 0.5 mM DTT, 25 °C, average of three runs of 25 scans. From the text:
Dynamic light scattering (DLS) uses a laser to measure the particle size distribution ([26]). The DLS can give information regarding the heterogeneity of protein in a sample ([27]). In the past, DLS was used to study microbial and viral structure ([28]). Nowadays, DLS is a popular method for studying nanoparticles, liposomes, and exosomes ([29], [30], [31], [32]). Researchers have also used DLS to study the protein folding of bovine serum albumin ([33]). Therefore, we envisage that the DLS can be utilized to analyze the size changes of PRMT1 oligomeric compositions in an aqueous solution. We expect to see an increase in size with increasing protein concentrations. The prepared PRMT1 protein at varied concentrations was allowed to incubate in the aqueous buffer for equilibrium on ice for 10 min. The protein solution was filtered with 0.2-micron filter to remove any big interfering particles. The protein size was analyzed using a Malvern Zetasizer instrument. We took an average of three runs with about 25 scans each time to evaluate the data. […] Guanidine hydrochloride is a popular protein denaturant ([34]). […] As a negative control, we incubated PRMT1 in the presence of 6 M guanidine hydrochloride to disrupt oligomer formation. […] A literature reported that guanidine thiocyanate is a stronger denaturant than guanidine hydrochloride ([35]).
Figure 2 Oligomerization of PRMT1 detection by dynamic light scattering. Various concentrations of PRMT1 were incubated on ice for 10 min, then filtered by 0.2-micron syringe filter and collected data from the DLS. The top line with black circle indicates PRMT1 without denaturant. The open triangle and hexagon lines indicated PRMT1 oligomeric structure disrupted by 6 M guanidine hydrochloride and 5 M guanidine thiocyanate, respectively.
Indicated concentrations of PRMT1 were incubated for 10 min on ice with buffer (50 mM Hepes pH 8, 10 mM NaCl, 0.5 mM EDTA, 0.5 mM DTT) and filtered through the 0.22 μm syringe filter. For the experiment to disrupt the oligomer formation, 6 M of guanidine hydrochloride or 5 M of guanidine thiocyanate was added to the reaction. The samples were injected into the 1 ml disposable cuvette and measured by Zetasizer Nano ZS (Malvern Instruments) at 25 °C. Three measurements of 25 scans each were collected to average. The data was analyzed by the Malvern Zetasizer software v7.10.

In data set [5] the test system is R4 peptide. Nature of the data set: MALDI-MS methylation activity of PRMT1-E153Q and PRMT1-WT on R4 peptide. The class given is biochemical. The following applies: 2 μM PRMT1, 10 μM R4, 50 μM SAM, 30 min, room temperature.
Description: as §1
The reaction buffer contained 50 mM Hepes pH 8.0, 10 mM NaCl, 0.5 mM EDTA, and 0.5 mM DTT. The reaction consisted of PRMT1 at various concentrations, 10 μM of R4 (Peptide Sequence: Ac-[…]), and 50 μM of SAM. […]

T1 sequence (Q99873 11-353 isoform Q99873-3): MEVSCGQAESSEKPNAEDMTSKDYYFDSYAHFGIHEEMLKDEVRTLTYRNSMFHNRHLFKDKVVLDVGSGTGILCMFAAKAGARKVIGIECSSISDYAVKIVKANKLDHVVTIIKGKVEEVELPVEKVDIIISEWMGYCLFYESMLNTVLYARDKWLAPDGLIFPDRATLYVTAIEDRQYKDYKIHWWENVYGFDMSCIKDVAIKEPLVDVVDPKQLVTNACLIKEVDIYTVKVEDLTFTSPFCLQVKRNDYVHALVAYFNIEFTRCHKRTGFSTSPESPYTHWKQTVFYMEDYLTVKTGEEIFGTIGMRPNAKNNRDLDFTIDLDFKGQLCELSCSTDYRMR
T2 sequence (Q99873 11-353 isoform Q99873-3): as above

Consider “Ac-GGRGGFGGRGGKGGRGGFGGRGGFG [R4 peptide, synthetic peptide with four possible arginine methylation sites for PRMT1]”, for which the “methylation states observed” value in data set [1] is “multimethylated by PRMT1, from monomethylation to penta-methylation and hexa-methylation; also recorded: the hexa-methylation peak was only observed at 1 μM”. Also, in data set [2], the “R4 methylation states vs PRMT1-E153Q concentration” value is “the amounts of all of the different methylation states increased as more and more PRMT1-E153Q protein was added; also recorded: hexa- and hepta-methylated R4 peptides appeared when PRMT1-E153Q was increased up at 2 μM”. Also, in data set [3], the “PRMT1 enzymatic activity (CPM) vs PRMT1 concentration” value is recorded as “increase as higher-order oligomeric structures were formed”.
With “protein arginine methyltransferase 1 [PRMT1]”, the “Z-average vs PRMT1 concentration” value in data set [4] is “increased gradually with the increase in PRMT1 concentration”. In addition, the “number of methylation states in R4 substrate by PRMT1-WT” value in data set [5] is on record as “up to six methylation states in the R4 substrate”.
